The results in this text go back to patent US10344052B2, “Targeting peptides and uses thereof” (Health Research, Inc., priority 2013, dated 2019).

For one assay, the system named is ADT-perturbed human prostate cancer vasculature. Kind of assay: In vivo selection of Ph.D.-12 phage display library against ADT-perturbed human prostate cancer xenografts, NextGen sequencing of recovered phage. The note with it: CaP Tissue Specimen 1; xenograft in SCID mouse, 72 h after ADT. How it is done: Male SCID mice were castrated and pre-implanted with silastic tubing to provide sustained-release of testosterone to maintain human serum levels testosterone in the host mouse and to facilitate castration/androgen deprivation (ADT). Human prostate tumor tissue was prepared for transplantation by cutting the radical prostatectomy surgical remnant in ViaSpan into approximately 1.0 mm^3 to 2.0 mm^3 wedges. Tissue was transplanted, into individual incisions in the skin; four pieces of tissue were transplanted on each flank of mice anesthetized with isoflurane. Each piece of tumor tissue was dipped into Matrigel, inserted into an incision, and the incisions closed with tissue glue.
Anastamosis of the human vasculature of the prostate cancer xenografts to the host mouse vascular system occurred between Days 5 and 6 after tissue transplantation, and the vasculature had stabilized by Day 21 after transplantation.
Seventy-two hours after initiation of ADT, the host mouse was anesthetized with acepromazine/ketamine/xylazine and the peptide-phage display library introduced systemically by intra-cardiac injection into the right ventricle. The Ph.D.-12 phage library (NEB, Ipswich, Mass.) was injected at a concentration of 1.2×10^11 pfu in 100 μL. The phage library was allowed to circulate through the mouse host for 15 minutes. At the conclusion of the incubation the vascular volume was replaced by perfusion (40 ml) with PBS to remove unbound phage. […] The xenografts were excised and placed into an eppendorf tube containing 0.5 mL phage elution buffer (0.2 M Glycine-HCl pH 2.2, 0.5% BSA) and the xenografts homogenized with a rotor/stator homogenizer on ice. The phage containing homogenate was cleared by centrifugation at 20,800×G for 5 minutes, and neutralization buffer (Tris-HCl pH 9.1) added to the supernatant. The concentration of phage in the eluate was established by titration: serial 10-fold dilutions of the neutralized phage eluate (10 μl) were added to 200 μL of a mid-log culture of host bacteria (ER2738), the cells/phage mixed with 3.5 mL of molten top agar (48° C.), and plated onto LB. Plates were incubated at 37° C. overnight and blue plaques were counted for determination of pfu. Based on the pfu, an aliquot of the neutralized phage eluate that contained a standardized number of phage was amplified by addition to a 20 mL flask of LB/Tet inoculated with 200 μL of an overnight culture of ER2738, and the culture incubated for 4 hours. The culture was cleared of bacteria by centrifugation, the supernatant treated with ⅙ volume of PEG/NaCl (20% (w/v) PEG-8000, 2.5M NaCl), refrigerated overnight for phage precipitation, and phage recovered by centrifugation. The final phage pellet was resuspended in […] of TBS and titered (as described above). For all in vivo selections the input phage held constant at 1.2×10^11 phage per mouse.
Following the third sequential round of in vivo selection against tissue from a single patient, the recovered phage population was titered, diluted and plated at a concentration to yield approximately 100 plaques per plate. Individual plaques were picked and amplified for conventional DNA sequencing to verify that a diversity of peptides was selected. Subsequently, the region of the phage genome that contained the random peptides embedded in the pIII protein were amplified by PCR from all selected phage libraries in preparation for Next Gen Sequencing. PCR primers were designed that flanked the hyper-variable region of the phage genome, the region containing the peptide inserted into the pIII protein: (FWD:—3gIII: 5′-CCTTTCTATTCTCACTCTGCT-3′ (SEQ ID NO:98); REV:—155gIII: 5′-CCGTAACACTGAGTTTCGTCA-3′ (SEQ ID NO:99)). The amplified segments were the templates for the NextGen DNA sequencing process. Templates were quantified and concentrations normalized and underwent 454 Next Gen sequencing using 500 ng of amplified template DNA at a concentration of […]. […]
A general note: A xenograft is tissue or cells of one species grown in another, often human tumour cells in immunodeficient mice.
With GAMHLPWHMGT, the “Recovery of Candidate Peptides Percent of Total Phage After 3 Cycles of Selection” value amounted to 0.21%.
On the same count and under the same terms, as for DPKFPQNSHLIT, the figure is 0.63%; as for TLQRTHFPPAFS, 9.58%; as for KPPQTNTSAPYLP, 27.3%.
For the sequence AETVESCLAKSH, the “Recovery of Candidate Peptides Percent of Total Phage After 3 Cycles of Selection” value came out at 0.99%.
Take TMGFTAPRFPHY: the “Recovery of Candidate Peptides Percent of Total Phage After 3 Cycles of Selection” value stood at 26.5%.
As to HSAQPVKSKAWL, the “Recovery of Candidate Peptides Percent of Total Phage After 3 Cycles of Selection” value is 0.3%.
Regarding LLADTTHHRWT, the “Recovery of Candidate Peptides Percent of Total Phage After 3 Cycles of Selection” value turned out to be 0.1%.
As to SPHWQPNAI, the “Recovery of Candidate Peptides Percent of Total Phage After 3 Cycles of Selection” value was 3.29%.
Consider DQHGFMHIFDL, for which the “Recovery of Candidate Peptides Percent of Total Phage After 3 Cycles of Selection” value was 0.4%.

Still in this assay, the particulars now being: CaP Tissue Specimen 2; xenograft in SCID mouse, 72 h after ADT.
Turning to GAMHLPWHMGT, the “Recovery of Candidate Peptides Percent of Total Phage After 3 Cycles of Selection” value is reported as 46.3%.
As to DPKFPQNSHLIT, the “Recovery of Candidate Peptides Percent of Total Phage After 3 Cycles of Selection” value was 0.35%.
For the sequence TLQRTHFPPAFS, the “Recovery of Candidate Peptides Percent of Total Phage After 3 Cycles of Selection” value turned out to be 7.57%.
Still for that read-out and setting: as for KPPQTNTSAPYLP, the figure is 5.48%; as for AETVESCLAKSH, 0.5%.
Turning to TMGFTAPRFPHY, the “Recovery of Candidate Peptides Percent of Total Phage After 3 Cycles of Selection” value is 4.78%.
HSAQPVKSKAWL: the “Recovery of Candidate Peptides Percent of Total Phage After 3 Cycles of Selection” value stood at 0.2%.
As for LLADTTHHRWT, the “Recovery of Candidate Peptides Percent of Total Phage After 3 Cycles of Selection” value worked out at 0.1%.
As to SPHWQPNAI, the “Recovery of Candidate Peptides Percent of Total Phage After 3 Cycles of Selection” value was found to be 1.53%.
With DQHGFMHIFDL, the “Recovery of Candidate Peptides Percent of Total Phage After 3 Cycles of Selection” value is reported as 0.1%.

Staying with this assay, now noted: in words.
On to GAMHLPWHMGTL, for which the recovery entry is reported as “high recovery”.

The same assay, now with this note: third round of in vivo selection, data of the two tumor specimens combined.
Consider TLQRTHFPPAAG, for which the “# clones recovered” value worked out at 3.
On to TMGFTAPRFQHY, for which the “# clones recovered” value is 2.
In the case of TLQRTHFPRLFG, the “# clones recovered” value worked out at 3.
For the sequence TLQRTHFPRRFG, the “# clones recovered” value came to 3.
For the sequence TLQRTLFPPVVS, the “# clones recovered” value is on record as 14.
Still for that read-out and setting: as for TMGFTAPRFRIM, the figure is 5; as for TLQRTHFPPA, 30.
Consider KPPQNTSAPLSS, for which the “# clones recovered” value is listed as 3.
For TLQRTHFPSGVS, the “# clones recovered” value is recorded as 14.
Still for that read-out and setting: in the case of TLQRTHFSPAFS it was 4.
Consider TLQRTHFPSA, for which the “# clones recovered” value is 6.
Consider TLQRTHFSAGVF, for which the “# clones recovered” value is 116.
Still for that read-out and setting: as for TMGFTAPRFPAL, the figure is 2; as for TXGFTAPRFPHY, 47; as for TLQRTHFPPAFF, 22.
Regarding TLQRTHFRRRFG, the “# clones recovered” value is recorded as 95.
Consider TMGFTAPRFP, for which the “# clones recovered” value was found to be 9.
Consider TMGFTAPRFPHM, for which the “# clones recovered” value is reported as 2.
As to TLQRTHFPPAFS, the “# clones recovered” value is on record as 7988.
In the case of TMGFTAPRFPHH, the “# clones recovered” value is reported as 3.
With TLQRTHFSVR, the “# clones recovered” value turned out to be 4.
On to TLQRTHFPSGVF, for which the “# clones recovered” value is reported as 32.
Still for that read-out and setting: as for SPHWQPNAILL, the figure is 2; as for TMGFTAPRFPLL, 6.
In the case of TLQRTHFPPAFW, the “# clones recovered” value is 3.
With TLQRIHFPPAFS, the “# clones recovered” value is reported as 5.
On to TLQRTHFPRRFR, for which the “# clones recovered” value worked out at 6.
Turning to TMGFTAPRFPHQ, the “# clones recovered” value stood at 8.
For the sequence TMGFTAPRFPHL, the “# clones recovered” value stood at 4.
Take TMGLTHSRVRIE: the “# clones recovered” value was 2.
With KPPQNTSAPYLR, the “# clones recovered” value amounted to 2.
On the same count and under the same terms, as for TLQRTHFPPVVS, the figure is 8.
For TLQRTHFPPARR, the “# clones recovered” value is listed as 3.
Consider SPHWQPNAIFVN, for which the “# clones recovered” value worked out at 36.
On the same count and under the same terms, as for TLQRTHFRPAF, the figure is 6; as for TLQRTHFPSG, 47.
Regarding TMGFTAPRRGAV, the “# clones recovered” value was 2.
Consider TLQRTHFPPAFP, for which the “# clones recovered” value turned out to be 3.
Same read-out and setting: in the case of TLQRTHFRPAFR it was 21; in that of SPHWQPNAIL, 2.
For TLQRTHFRRRF, the “# clones recovered” value is on record as 5.
With TLQRTHFPPVVF, the “# clones recovered” value was 19.
Still for that read-out and setting: as for TMGFTAPRFPHC, the figure is 2; as for TLQRTLFSAGVF, 9; as for TLQRTHFPSGV, 19.
As to TMGFTAPRFPSV, the “# clones recovered” value is given as 2.
Regarding TLQRTLFSAGRF, the “# clones recovered” value amounted to 32.
On the same count and under the same terms, in the case of TMGFTAPWFPHY it was 2.
With TLQRTHFPPGVF, the “# clones recovered” value is 5.
Turning to KPPQNTSCAFIF, the “# clones recovered” value is 2.
As for KPPQNTSAPY, the “# clones recovered” value turned out to be 2.
The same measure, in the same setting: as for TLQRTHFPPAFR, the figure is 126.
On the same count and under the same terms, in the case of KPPQNTSAPYLP it was 659; in that of TLQRTHFPLAFS, 3; in that of SPHWQPNAILLM, 17.
For TMGFTAPRFPHR, the “# clones recovered” value is 4.
